{"source": "ChEMBL document CHEMBL5113393", "about": "“Discovery of 2-((2-methylbenzyl)thio)-6-oxo-4-(3,4,5-trimethoxyphenyl)-1,6-dihydropyrimidine-5-carbonitrile as a novel and effective bromodomain and extra-terminal (BET) inhibitor for the treatment of sepsis” (Eur J Med Chem, 2022)", "key": {"[1]": {"tested_on": "Mus musculus", "test": "Protection against LPS-induced sepsis in C57BL/6 mouse model assessed as reduction in white secretion from eyes at 30 mg/kg, ip qd administered for 3 days followed by LPS stimulation", "format": "functional, organism-based", "conditions": "time 3.0 day"}, "[2]": {"biological_target": "Bromodomain-containing protein 4 (Homo sapiens, UniProt O60885)", "test": "Inhibition of BRD4 BD1 (unknown origin) using FAM-labeled JQ-1 as fluorescent substrate assessed as inhibition constant incubated for 30 mins by competitive fluorescence polarization method"}, "[3]": {"tested_on": "Mus musculus", "test": "Protection against LPS-induced sepsis in C57BL/6 mouse model assessed as increase in survival rate at 15 mg/kg, ip qd administered for 3 days followed by LPS stimulation and measured every 2 hrs for 120 hrs (reference value: 10%)", "format": "functional"}, "[4]": {"tested_on": "Mus musculus", "test": "Protection against LPS-induced sepsis in C57BL/6 mouse model assessed as improvement in orbital movement at 30 mg/kg, ip qd administered for 3 days followed by LPS stimulation", "format": "functional, organism-based", "conditions": "time 3.0 day"}, "[5]": {"tested_on": "Mus musculus", "test": "Protection against LPS-induced sepsis in C57BL/6 mouse model assessed as increase in survival rate at 30 mg/kg, ip qd administered for 3 days followed by LPS stimulation and measured every 2 hrs for 120 hrs (reference value: 10%)", "format": "functional"}, "[6]": {"tested_on": "RAW264.7", "test": "Antiinflammatory activity in mouse RAW264.7 cells assessed as reduction in LPS-induced TNF-alpha mRNA expression preincubated for 2 hrs followed by LPS stimulation and measured after 22 hrs by RT-qPCR analysis", "format": "functional, cell-based", "conditions": "dose 5-25 µM, time 24.0 hrs, DDE = dose-dependent effect"}, "[7]": {"tested_on": "RAW264.7", "test": "Antiinflammatory activity in mouse RAW264.7 cells assessed as reduction in LPS-induced IL-6 mRNA expression preincubated for 2 hrs followed by LPS stimulation and measured after 22 hrs by RT-qPCR analysis", "format": "functional, cell-based", "conditions": "dose 5-25 µM, time 24.0 hrs, DDE = dose-dependent effect"}, "[8]": {"tested_on": "RAW264.7", "test": "Antiinflammatory activity in mouse RAW264.7 cells assessed as reduction in LPS-induced IL-1beta mRNA expression preincubated for 2 hrs followed by LPS stimulation and measured after 22 hrs by RT-qPCR analysis", "format": "functional, cell-based", "conditions": "dose 5-25 µM, time 24.0 hrs, DDE = dose-dependent effect"}, "[9]": {"tested_on": "Mus musculus", "test": "Protection against LPS-induced sepsis in C57BL/6 mouse model assessed as improvement in mobility at 30 mg/kg, ip qd administered for 3 days followed by LPS stimulation", "format": "functional, organism-based", "conditions": "time 3.0 day"}, "[10]": {"tested_on": "RAW264.7", "test": "Antiinflammatory activity in mouse RAW264.7 cells assessed as reduction in LPS-induced TNF-alpha level at 5 to 10 uM preincubated for 2 hrs followed by LPS stimulation and measured after 22 hrs by ELISA", "format": "functional, cell-based", "conditions": "dose 5-10 µM, time 24.0 hrs"}, "[11]": {"tested_on": "RAW264.7", "test": "Antiinflammatory activity in mouse RAW264.7 cells assessed as reduction in LPS-induced IL-6 level at 5 to 10 uM preincubated for 2 hrs followed by LPS stimulation and measured after 22 hrs by ELISA", "format": "functional, cell-based", "conditions": "dose 5-10 µM, time 24.0 hrs"}, "[12]": {"tested_on": "Mus musculus", "test": "Antiinflammatory activity against LPS-induced sepsis in C57BL/6 mouse model assessed as reduction in TNF-alpha level at 15 mg/kg, ip qd administered for 3 days followed by LPS stimulation and measured after 12 hrs by ELISA", "format": "functional, organism-based", "conditions": "time 84.0 hrs"}, "[13]": {"tested_on": "Mus musculus", "test": "Antiinflammatory activity against LPS-induced sepsis in C57BL/6 mouse model assessed as reduction in IL-6 level at 15 mg/kg, ip qd administered for 3 days followed by LPS stimulation and measured after 12 hrs by ELISA", "format": "functional, organism-based", "conditions": "time 84.0 hrs"}, "[14]": {"tested_on": "RAW264.7", "test": "Antiinflammatory activity in mouse RAW264.7 cells assessed as inhibition of LPS-induced NO production at 10 uM preincubated for 2 hrs followed by LPS stimulation and measured after 22 hrs by Griess reagent-based assay relative to control", "format": "functional", "conditions": "time 24 hrs"}, "[15]": {"tested_on": "Mus musculus", "test": "Protection against LPS-induced sepsis in C57BL/6 mouse model assessed as reduction in hypothermia administered intraperitoneally daily for 3 days followed by LPS stimulation for 12 hrs and measured every 1 hr by digital thermometer", "format": "functional, organism-based", "conditions": "dose lower […], dose upper 30.0 mg/kg, route ip, time 84.0 hrs, DDE = dose-dependent effect"}, "[16]": {"tested_on": "RAW264.7", "test": "Antiinflammatory activity in mouse RAW264.7 cells assessed as inhibition of LPS-induced NO production at 5 uM preincubated for 2 hrs followed by LPS stimulation and measured after 22 hrs by Griess reagent-based assay relative to control", "format": "functional", "conditions": "time 24 hrs"}}, "note": "Activity calls are given as the source filed them. No cut-off for these calls is given here."}
{"compound": "COc1cc(-c2nc(SCc3ccccc3C)[nH]c(=O)c2C#N)cc(OC)c1OC", "values": [{"measurement": "Activity", "setting": "[1]", "value": "Active"}, {"measurement": "Ki", "setting": "[2]", "value": 830, "unit": "nM"}, {"measurement": "survival at 15 mg/kg", "setting": "[3]", "value": 50, "unit": "%"}, {"measurement": "Activity", "setting": "[4]", "value": "Active"}, {"measurement": "survival at 30 mg/kg", "setting": "[5]", "value": 80, "unit": "%"}, {"measurement": "Activity", "setting": "[6]", "value": "Dde"}, {"measurement": "Activity", "setting": "[7]", "value": "Dde"}, {"measurement": "Activity", "setting": "[8]", "value": "Dde"}, {"measurement": "Activity", "setting": "[9]", "value": "Active"}, {"measurement": "Activity", "setting": "[10]", "value": "Active"}, {"measurement": "Activity", "setting": "[11]", "value": "Active"}, {"measurement": "Activity", "setting": "[12]", "value": "Active"}, {"measurement": "Activity", "setting": "[13]", "value": "Active"}, {"measurement": "inhibition at 10 µM", "setting": "[14]", "value": 99.8, "unit": "%"}, {"measurement": "Activity", "setting": "[15]", "value": "Dde"}, {"measurement": "inhibition at 5 µM", "setting": "[16]", "value": 74.2, "unit": "%"}]}
